# Literature values as cited in patent publication US20110229902A1, “METHOD FOR DETERMINING THE […] OF FUNGI AND YEASTS, IN PARTICULAR OF A[…]” (STICHTING TER B[…] DE FARMACODYNAMIEK, priority 2008, published 2011).
# Tests used:
# Set-up in all cases: key: R = resistant; S = sensitive
# [1] = test system: Aspergillus fumigatus cyp51A G54W; details: A. fumigatus isolate with cyp51A mutation G54W
# [2] = test system: Aspergillus fumigatus cyp51A G54X; details: A. fumigatus isolate with cyp51A mutation G54X
# [3] = test system: Aspergillus fumigatus cyp51A L98H + TR; details: A. fumigatus isolate with cyp51A L98H + TR (tandem repeat in promoter)
# [4] = test system: Aspergillus fumigatus cyp51A G138C; details: A. fumigatus isolate with cyp51A mutation G138C
# [5] = test system: Aspergillus fumigatus cyp51A M220X; details: A. fumigatus isolate with cyp51A mutation M220X
compound,measurement,setting,value
C[C@@H](c1nc(-c2ccc(C#N)cc2)cs1)[C@](O)(Cn1cncn1)c1ccc(F)cc1F [Ravuconazole],resistance status (resistant or sensitive),[1],S
same,resistance status (resistant or sensitive),[2],S
same,resistance status (resistant or sensitive),[3],R
same,resistance status (resistant or sensitive),[4],R
same,resistance status (resistant or sensitive),[5],S
CC[C@@H]([C@H](C)O)n1ncn(-c2ccc(N3CCN(c4ccc(OC[C@@H]5CO[C@@](Cn6cncn6)(c6ccc(F)cc6F)C5)cc4)CC3)cc2)c1=O [Posaconazole],resistance status (resistant or sensitive),[1],R
same,resistance status (resistant or sensitive),[2],S
same,resistance status (resistant or sensitive),[3],S
same,resistance status (resistant or sensitive),[4],S
same,resistance status (resistant or sensitive),[5],S
C[C@@H](c1ncncc1F)[C@](O)(Cn1cncn1)c1ccc(F)cc1F [Voriconazole],resistance status (resistant or sensitive),[1],S
same,resistance status (resistant or sensitive),[2],S
same,resistance status (resistant or sensitive),[3],R
same,resistance status (resistant or sensitive),[4],R
same,resistance status (resistant or sensitive),[5],S
